Here are results for 22 compounds from ChEMBL document CHEMBL1122911, “Synthesis and antitumor activity of tropolone derivatives. 2” (1985).

Assay [1] concerns Mus musculus. Description: In vivo antitumor activity against leukemia P388 in mice after intraperitoneal administration at a dose of 200 mg/kg once a day for 1 and 5 days. The class given is functional.
Assay [2] concerns Mus musculus. Description: In vivo antitumor activity against leukemia P388 in mice after intraperitoneal administration at a dose of 100 mg/kg once a day for 1 and 5 days. The class given is functional.
The subject of assay [3] is Mus musculus. Kind of assay: In vivo antitumor activity against leukemia P388 in mice after intraperitoneal administration at a dose of 400 mg/kg once a day for 1 and 5 days. Format: functional.
Assay [4] is described as follows: In vitro inhibitory activity against growth of KB cells. Format: functional, Homo sapiens. The settings on record: for IC50: Homo sapiens, KB, read-out: ID50 (the source's name).
Assay [5] has as its system Mus musculus. Kind of assay: In vivo antitumor activity against leukemia P388 in mice after intraperitoneal administration of the compound at a dose of 200 mg/kg once a day for 1 and 5 days. Format: functional.
Assay [6] relates to Mus musculus. Kind of assay: Compound was tested for inhibitory activity against P388 leukemia in mice at 400 mg/kg. Format: functional, organism-based. Also on record: dose 400 mg/kg.
The subject of assay [7] is Mus musculus. Description: In vivo antitumor activity against leukemia P388 in mice after intraperitoneal administration once a day for 1 and 5 days. The class given is functional.
The subject of assay [8] is Mus musculus. Description: In vivo antitumor activity against leukemia P388 in mice after intraperitoneal administration at a dose of 50 mg/kg once a day for 1 and 5 days. Format: functional.
In assay [9] the test system is Mus musculus. Description: In vivo antitumor activity against leukemia P388 in mice after intraperitoneal administration at a dose of 25 mg/kg once a day for 1 and 5 days. Format: functional.
In assay [10] the test system is Mus musculus. Description: In vivo antitumor activity against leukemia P388 in mice after intraperitoneal administration at a dose of 12.5 mg/kg once a day for 1 and 5 days. Format: functional.

≈ marks a conversion by molar mass, not a printed value. Where “and” joins values, the source holds several entries; their conditions need not be identical. Equal values may be shown once. Calls of active or inactive are those of the source. No cut-off for these calls is given here.

Consider `COc1ccc(C(NC(=O)c2ccccc2)c2ccc(C(C)C)cc(=O)c2O)cc1` (stereo unspecified), for which the T/C in the assay on Mus musculus [1] is on record as 110%; with Mus musculus [2] it was 104%; with Mus musculus [3], 131%. The same compound returned an ID50 in assay [4] of 4.2 µM. Moreover, the IC50 in [4] amounted to 1.7 µg/mL (≈ 4.21 µM).
Take `COc1ccc(C(c2ccc(C(C)C)cc(=O)c2O)n2c(=S)oc3ccccc32)cc1` (stereo unspecified): the T/C with Mus musculus [5] came to 105%; with Mus musculus [2], 113%; with Mus musculus [3], 133%. The compound also returned an ID50 in [4] of 8.5 µM. The IC50 in assay [4] is 3.7 µg/mL (≈ 8.53 µM).
Turning to `COC(=O)c1ccc(O)c(C2OCCc3ccccc32)c1` (stereo unspecified), the result in the assay on Mus musculus [6] was inactive. Besides, in [4], the ID50 was found to be 352 µM and the IC50 is over 100 µg/mL.
On to `Cc1cc(O)c(C(C)C)cc1C(c1ccccc1)c1cc(C(C)C)c(O)cc1C`, for which, in the assay on Mus musculus [7], the T/C was 102% and 100% and 87%. Besides, in [4], the ID50 worked out at 34 µM and the IC50 amounted to 13 µg/mL (≈ 33.5 µM).
`O=C1c2ccccc2CC1C1OCCc2ccccc21` (stereo unspecified): the outcome with Mus musculus [6] was inactive. Moreover, in [4], the ID50 turned out to be 144 µM and the IC50 turned out to be 38 µg/mL (≈ 144 µM).
In the same order, the values of `S=c1oc2ccc(Cl)cc2n1C1OCCc2ccccc21` (stereo unspecified) are “inactive”, 268 µM and 85 µg/mL (≈ 267 µM).
`CC(C)c1ccc(C(Sc2ccccc2)c2ccccc2)c(O)c(=O)c1` (stereo unspecified): the results for the T/C in the assay on Mus musculus [1], with Mus musculus [2] and in the assay with Mus musculus [3] were 135%, 108% and 113%, respectively. In [4], this compound came in with an ID50 of 1.4 µM. For the same compound, in assay [4], the IC50 was determined as 0.5 µg/mL (≈ 1.38 µM).
In the case of `CC(=O)C1=C(O)CN(C2OCCc3ccccc32)C1=O` (stereo unspecified), the outcome in the assay on Mus musculus [6] was inactive. In assay [4], the ID50 was found to be 366 µM and the IC50 is over 100 µg/mL.
For `COc1ccc(C(c2oc(CO)cc(=O)c2O)c2oc(CO)cc(=O)c2O)cc1`, the T/C in the assay on Mus musculus [1] is recorded as 102%; with Mus musculus [8], 102%; in the assay on Mus musculus [2] it was 98%. The compound also registered an ID50 in assay [4] of 249 µM. For the same compound, the IC50 in assay [4] turned out to be 100 µg/mL (≈ 249 µM).
As for `Cc1cc(O)c(C(C)C)cc1C1OCCc2ccccc21` (stereo unspecified), the outcome in the assay on Mus musculus [6] was inactive. Moreover, in [4], the ID50 is 57 µM and the IC50 is 16 µg/mL (≈ 56.7 µM).
The matching figures for `O=C(c1ccccc1)C(c1ccccc1)C1OCCc2ccccc21` (stereo unspecified): “inactive”, 305 µM and over 100 µg/mL.
In the same order, the values of `O=c1oc2ccccc2c(O)c1C1OCCc2ccccc21` (stereo unspecified) are “inactive”, 340 µM and 100 µg/mL (≈ 340 µM).
For `O=C1c2ccccc2CCC1C1OCCc2ccccc21` (stereo unspecified), the outcome in the assay with Mus musculus [6] was inactive. In assay [4], the ID50 is 151 µM and the IC50 is 42 µg/mL (≈ 151 µM).
For the compound `CCOC(c1ccc(OC)cc1)c1ccc(C(C)C)cc(=O)c1O` (stereo unspecified), the T/C turned out to be 109% with Mus musculus [9], 119% in the assay on Mus musculus [8] and 96% in the assay with Mus musculus [10]. The IC50 in [4] came out at 0.5 µg/mL (≈ 1.52 µM).
For the compound `COc1ccc(C(NC(C)=O)c2ccc(C(C)C)cc(=O)c2O)cc1` (stereo unspecified), the T/C in the assay with Mus musculus [1] came to 92%; in the assay with Mus musculus [2], 92%; in the assay on Mus musculus [3], 108%. Besides, the ID50 in assay [4] turned out to be 18 µM. Moreover, the IC50 in assay [4] was determined as 6 µg/mL (≈ 17.6 µM).
On to `S=c1oc2ccc(Cl)cc2n1CC1OCCc2ccccc21` (stereo unspecified), for which the result in the assay with Mus musculus [6] was inactive. For the same compound, in assay [4], the ID50 was 28 µM and the IC50 is 8.9 µg/mL (≈ 26.8 µM).
Take `Clc1ccc2oc(SCC3OCCc4ccccc43)nc2c1` (stereo unspecified): the result in the assay on Mus musculus [6] was inactive. Further, in assay [4], the ID50 amounted to 18 µM and the IC50 came out at 6.1 µg/mL (≈ 18.4 µM).
The matching figures for `CC1(C)CC(=O)C(C2OCCc3ccccc32)=C(O)C1` (stereo unspecified): “inactive”, 368 µM and over 100 µg/mL.
The matching figures for `Oc1ncc(C2OCCc3ccccc32)c(O)n1` (stereo unspecified): “inactive”, 410 µM and over 100 µg/mL.
On to `Oc1ccc(C2OCCc3ccccc32)cc1` (stereo unspecified), for which the result with Mus musculus [6] was inactive. Further, in assay [4], the ID50 is 119 µM and the IC50 stood at 27 µg/mL (≈ 119 µM).
With `CCOC(c1ccccc1)c1ccc(C(C)C)cc(=O)c1O` (stereo unspecified), the T/C in the assay with Mus musculus [9] is on record as 97%; in the assay on Mus musculus [7], 96%.
In the case of `Oc1ccccc1C1OCCc2ccccc21` (stereo unspecified), the outcome in the assay on Mus musculus [6] was inactive. For the same compound, in [4], the ID50 was 90 µM and the IC50 was found to be 20.5 µg/mL (≈ 90.6 µM).

Usually T/C stands for the result in the treated group divided by that in the control group, in per cent.
